Assay results as given in patent US9358023B2, “Systems and methods for opening of a tissue barrier” (priority 2009, dated 2016).
Entries after “also recorded” stand apart in the source; their conditions may differ.

What was measured:
blood-brain barrier [1] = assay: FUS and microbubble BBB opening: fluorescent dextran delivery to the sonicated hippocampus, quantified as NOD;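 also: male wild-type C57BL/6 mice, left hippocampus sonicated with untargeted right hippocampus as control, read by fluorescence microscopy of frozen horizontal brain sections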
blood-brain barrier [2] = details: mouse
[3] = PL 3.5 cycles, PRF 6.25 kHz, BRF 0.1 Hz, BL 1000 pulses, pressure 0.51
[4] = PL 3.5 cycles, PRF 6.25 kHz, BRF 1 Hz, BL 1000 pulses, pressure 0.51
[5] = PL 3.5 cycles, PRF 6.25 kHz, BRF 2 Hz, BL 1000 pulses, pressure 0.51
[6] = PL 3.5 cycles, PRF 6.25 kHz, BRF 5 Hz, BL 1000 pulses, pressure 0.51
[7] = PL 3.5 cycles, PRF 6.25 kHz, pulses emitted continuously without bursts, pressure 0.51
[8] = PL 3.5 cycles, PRF 25 kHz, BRF 0.1 Hz, BL 1000 pulses, pressure 0.51
[9] = PL 3.5 cycles, PRF 25 kHz, BRF 1 Hz, BL 1000 pulses, pressure 0.51
[10] = PL 3.5 cycles, PRF 25 kHz, BRF 2 Hz, BL 1000 pulses, pressure 0.51
[11] = PL 3.5 cycles, PRF 25 kHz, BRF 5 Hz, BL 1000 pulses, pressure 0.51
[12] = PL 3.5 cycles, PRF 25 kHz, BRF 10 Hz, BL 1000 pulses, pressure 0.51
[13] = PL 3.5 cycles, PRF 25 kHz, pulses emitted continuously without bursts, pressure 0.51
[14] = PL 3.5 cycles, PRF 100 kHz, BRF 0.1 Hz, BL 1000 pulses, pressure 0.51
[15] = PL 3.5 cycles, PRF 100 kHz, BRF 1 Hz, BL 1000 pulses, pressure 0.51
[16] = PL 3.5 cycles, PRF 100 kHz, BRF 2 Hz, BL 1000 pulses, pressure 0.51
[17] = PL 3.5 cycles, PRF 100 kHz, BRF 5 Hz, BL 1 pulse, pressure 0.51
[18] = PL 3.5 cycles, PRF 100 kHz, BRF 5 Hz, BL 5 pulses, pressure 0.51
[19] = PL 3.5 cycles, PRF 100 kHz, BRF 5 Hz, BL 10 pulses, pressure 0.51
[20] = PL 3.5 cycles, PRF 100 kHz, BRF 5 Hz, BL 50 pulses, pressure 0.51
[21] = PL 3.5 cycles, PRF 100 kHz, BRF 5 Hz, BL 100 pulses, pressure 0.51
[22] = PL 3.5 cycles, PRF 100 kHz, BRF 5 Hz, BL 500 pulses, pressure 0.51
[23] = PL 3.5 cycles, PRF 100 kHz, BRF 5 Hz, BL 1000 pulses, pressure 0.13
[24] = PL 3.5 cycles, PRF 100 kHz, BRF 5 Hz, BL 1000 pulses, pressure 0.25
[25] = PL 3.5 cycles, PRF 100 kHz, BRF 5 Hz, BL 1000 pulses, pressure 0.37
[26] = PL 3.5 cycles, PRF 100 kHz, BRF 5 Hz, BL 1000 pulses, pressure 0.51
[27] = PL 3.5 cycles, PRF 100 kHz, BRF 10 Hz, BL 1000 pulses, pressure 0.51
[28] = PL 3.5 cycles, PRF 100 kHz, pulses emitted continuously without bursts, pressure 0.51
[29] = microbubble 0.01 μL/g, PRF 10 Hz, PL 20 ms, 0.46 MPa, 11-minute sonication
[30] = microbubble 0.05 μL/g injected over 180 seconds, PRF 5 Hz, PL 0.2 ms, 0.46 MPa
[31] = microbubble 0.05 μL/g, PRF 0.1 Hz, PL 20 ms, 0.46 MPa, 11-minute sonication
[32] = microbubble 0.05 μL/g, PRF 1 Hz, PL 20 ms, 0.46 MPa, 11-minute sonication
[33] = microbubble 0.05 μL/g, PRF 5 Hz, PL 0.2 ms, 0.46 MPa, 11-minute sonication
[34] = microbubble 0.05 μL/g, PRF 5 Hz, PL 20 ms, 0.46 MPa, 11-minute sonication
[35] = microbubble 0.05 μL/g, PRF 10 Hz, PL 0.03 ms, 0.46 MPa, 11-minute sonication
[36] = microbubble 0.05 μL/g, PRF 10 Hz, PL 0.1 ms, 0.46 MPa, 11-minute sonication
[37] = microbubble 0.05 μL/g, PRF 10 Hz, PL 0.2 ms, 0.46 MPa, 11-minute sonication
[38] = microbubble 0.05 μL/g, PRF 10 Hz, PL 1 ms, 0.46 MPa, 11-minute sonication
[39] = microbubble 0.05 μL/g, PRF 10 Hz, PL 2 ms, 0.46 MPa, 11-minute sonication
[40] = microbubble 0.05 μL/g, PRF 10 Hz, PL 10 ms, 0.46 MPa, 11-minute sonication
[41] = microbubble 0.05 μL/g, PRF 10 Hz, PL 20 ms, 0.46 MPa, 11-minute sonication
[42] = microbubble 0.05 μL/g, PRF 10 Hz, PL 20 ms, 0.46 MPa, microbubble and dextran 1 minute before a 30-second sonication
[43] = microbubble 0.05 μL/g, PRF 10 Hz, PL 30 ms, 0.46 MPa, 11-minute sonication
[44] = microbubble 0.05 μL/g, PRF 25 Hz, PL 20 ms, 0.46 MPa, 11-minute sonication
[45] = microbubble 0.25 μL/g, PRF 10 Hz, PL 20 ms, 0.46 MPa, 11-minute sonication
[46] = sham mouse, no ultrasound applied, microbubble 0.05 μL/g

## dextran
blood-brain barrier [1]; 100-kHz PRF, 5-Hz BRF, 0.51 MPa, 1000 pulse BL
  increase in NOD (significance): Significant increases
blood-brain barrier [1]; [3]
  Incidence of NOD increase: 2/3
  NOD (mean ± std. dev.): 0.68 ± 0.47 × 1e9
blood-brain barrier [1]; [4]
  Incidence of NOD increase: 2/3
  NOD (mean ± std. dev.): 0.78 ± 0.85 × 1e9
blood-brain barrier [1]; [5]
  Incidence of NOD increase: 1/3
  NOD (mean ± std. dev.): −0.16 ± 0.67 × 1e9
blood-brain barrier [1]; [6]
  Incidence of NOD increase: 2/3
  NOD (mean ± std. dev.): 0.56 ± 0.95 × 1e9
blood-brain barrier [1]; [7]
  Incidence of NOD increase: 1/3
  NOD (mean ± std. dev.): −0.11 ± 0.35 × 1e9
blood-brain barrier [1]; [8]
  Incidence of NOD increase: 2/3
  NOD (mean ± std. dev.): 0.35 ± 0.10 × 1e9
blood-brain barrier [1]; [9]
  Incidence of NOD increase: 3/3
  NOD (mean ± std. dev.): 1.92 ± 0.10 × 1e9
blood-brain barrier [1]; [10]
  Incidence of NOD increase: 3/3
  NOD (mean ± std. dev.): 3.34 ± 1.35 × 1e9
blood-brain barrier [1]; [11]
  Incidence of NOD increase: 3/3
  NOD (mean ± std. dev.): 1.48 ± 0.77 × 1e9
blood-brain barrier [1]; [12]
  Incidence of NOD increase: 2/3
  NOD (mean ± std. dev.): 1.31 ± 1.35 × 1e9
blood-brain barrier [1]; [13]
  Incidence of NOD increase: 1/3
  NOD (mean ± std. dev.): 0.30 ± 0.20 × 1e9
blood-brain barrier [1]; [14]
  Incidence of NOD increase: 2/3
  NOD (mean ± std. dev.): 0.99 ± 0.85 × 1e9
blood-brain barrier [1]; [15]
  Incidence of NOD increase: 3/3
  NOD (mean ± std. dev.): 1.45 ± 0.73 × 1e9
blood-brain barrier [1]; [16]
  Incidence of NOD increase: 3/3
  NOD (mean ± std. dev.): 3.08 ± 2.76 × 1e9
blood-brain barrier [1]; [17]
  Incidence of NOD increase: 0/3
  NOD (mean ± std. dev.): 0.01 ± 0.11 × 1e9
blood-brain barrier [1]; [18]
  Incidence of NOD increase: 1/3
  NOD (mean ± std. dev.): 0.13 ± 0.17 × 1e9
blood-brain barrier [1]; [19]
  Incidence of NOD increase: 3/3
  NOD (mean ± std. dev.): 2.14 ± 1.33 × 1e9
blood-brain barrier [1]; [20]
  Incidence of NOD increase: 3/3
  NOD (mean ± std. dev.): 2.20 ± 0.54 × 1e9
blood-brain barrier [1]; [21]
  Incidence of NOD increase: 3/3
  NOD (mean ± std. dev.): 3.60 ± 0.95 × 1e9
blood-brain barrier [1]; [22]
  Incidence of NOD increase: 3/3
  NOD (mean ± std. dev.): 3.30 ± 0.58 × 1e9
blood-brain barrier [1]; [23]
  Incidence of NOD increase: 1/3
  NOD (mean ± std. dev.): 0.10 ± 0.21 × 1e9
blood-brain barrier [1]; [24]
  Incidence of NOD increase: 1/3
  NOD (mean ± std. dev.): 0.10 ± 0.16 × 1e9
blood-brain barrier [1]; [25]
  Incidence of NOD increase: 2/3
  NOD (mean ± std. dev.): 0.60 ± 0.48 × 1e9
blood-brain barrier [1]; [26]
  Incidence of NOD increase: 3/3
  NOD (mean ± std. dev.): 6.14 ± 1.45 × 1e9
blood-brain barrier [1]; [27]
  Incidence of NOD increase: 3/3
  NOD (mean ± std. dev.): 2.01 ± 1.44 × 1e9
blood-brain barrier [1]; [28]
  Incidence of NOD increase: 1/3
  NOD (mean ± std. dev.): 0.21 ± 0.32 × 1e9
blood-brain barrier [1]; bursts of 3.5-cycle pulses, 100-kHz PRF, 5-Hz BRF, 0.51 MPa, 1000 pulse BL, listed as 3-kDa dextran
  spatial distribution of delivered dextran fluorescence in the target ROI: distributed most homogeneously and across a larger area than the other two molecular weights; also recorded: homogeneous and diffuse spatial distribution
blood-brain barrier [1]; [29]
  NOD (mean ± std. dev.): 2.89 ± 1.99 × 1e9
  Number of mice with delivered dextran: 5/5
blood-brain barrier [1]; [30]
  NOD (mean ± std. dev.): 1.58 ± 1.37 × 1e9
  Number of mice with delivered dextran: 5/5
blood-brain barrier [1]; [31]
  NOD (mean ± std. dev.): −0.17 ± 0.17 × 1e9
  Number of mice with delivered dextran: 0/5
blood-brain barrier [1]; [32]
  NOD (mean ± std. dev.): 3.77 ± 4.52 × 1e9
  Number of mice with delivered dextran: 3/5
blood-brain barrier [1]; [33]
  NOD (mean ± std. dev.): 2.02 ± 1.38 × 1e9
  Number of mice with delivered dextran: 5/5
blood-brain barrier [1]; [34]
  NOD (mean ± std. dev.): 4.21 ± 2.05 × 1e9
  Number of mice with delivered dextran: 5/5
blood-brain barrier [1]; [35]
  NOD (mean ± std. dev.): 0.78 ± 1.41 × 1e9
  Number of mice with delivered dextran: 2/5
blood-brain barrier [1]; [36]
  NOD (mean ± std. dev.): 1.20 ± 1.05 × 1e9
  Number of mice with delivered dextran: 5/6
blood-brain barrier [1]; [37]
  NOD (mean ± std. dev.): 0.98 ± 0.67 × 1e9
  Number of mice with delivered dextran: 5/5
blood-brain barrier [1]; [38]
  NOD (mean ± std. dev.): 4.07 ± 3.71 × 1e9
  Number of mice with delivered dextran: 5/5
blood-brain barrier [1]; [39]
  NOD (mean ± std. dev.): 1.84 ± 1.44 × 1e9
  Number of mice with delivered dextran: 4/5
blood-brain barrier [1]; [40]
  NOD (mean ± std. dev.): 4.76 ± 2.03 × 1e9
  Number of mice with delivered dextran: 5/5
blood-brain barrier [1]; [41]
  NOD (mean ± std. dev.): 4.45 ± 2.08 × 1e9
  Number of mice with delivered dextran: 5/5
blood-brain barrier [1]; [42]
  NOD (mean ± std. dev.): 4.91 ± 0.94 × 1e9
  Number of mice with delivered dextran: 5/5
blood-brain barrier [1]; [43]
  NOD (mean ± std. dev.): 5.77 ± 1.73 × 1e9
  Number of mice with delivered dextran: 5/5
blood-brain barrier [1]; [44]
  NOD (mean ± std. dev.): 4.58 ± 1.40 × 1e9
  Number of mice with delivered dextran: 5/5
blood-brain barrier [1]; [45]
  NOD (mean ± std. dev.): 5.34 ± 2.12 × 1e9
  Number of mice with delivered dextran: 5/5
blood-brain barrier [1]; [46]
  NOD (mean ± std. dev.): 0.01 ± 0.23 × 1e9
  Number of mice with delivered dextran: 0/5

B1: GDNF: glia-derived neurotrophic factor (protein, UniProt P39905 78-211, looked up)
Glial cell line-derived …: SPDKQMAVLPRRERNRQAAAANPENSRGKGRRGQRGKNRGCVLTAIHLNVTDLGLGYETKEELIFRYCSGSCDAAETTYDKILKNLSRNRRLVSDKVGQACCRPIAFDDDLSFLDDNLVYHILRKHSAKRCGCI
blood-brain barrier [2]
  permeation through the FUS-opened BBB into the parenchyma: does not
blood-brain barrier [2]; in vivo
  fluorescence post-mortem in brain, kidneys, liver, bladder or testes: no fluorescence was found
  time within which the protein may be broken down in circulation: ≤ 45 s

B2: Neurturin: neurotrophic factor neurturin (NTN) (protein, UniProt Q99748 96-197, looked up)
Neurturin: ARLGARPCGLRELEVRVSELGLGYASDETVLFRYCAGACEAAARVYDLGLRRLRQRRRLRRERVRAQPCCRPTAYEDEVSFLDAHSRYHTVHELSARECACV
blood-brain barrier [2]
  permeation through the FUS-opened BBB into the parenchyma: permeating through the opened barrier and into the parenchyma
